Test results published in patent publication US11213514B2, “Alpha-1-adrenergic receptor agonist therapy” (The Regents of the University of California, priority 2016, dated 2022).

Test system: ERK
Assay: ERK activation in neonatal rat ventricular myocytes (pERK/ERK Western blot)
Type: cell-based
Conditions: NRVMs, norepinephrine 1 μM in the presence of propranolol 1 μM
Text: FIGS. 4A-4F. […] The reaction was stopped immediately and lysates were blotted for total and phospho-ERK (pERK). FIG. 4A. Representative Western blot. FIG. 4B. […] FIG. 4C. Summary of pERK/ERK for experiments using 5 different NRVM isolations. The average pERK/ERK ratio for each experiment was derived from at least 2 individual wells and normalized to the pERK/ERK ratio for vehicle treated NRVMs. FIG. 4D and FIG. 4E. […] Heart lysates were blotted for pERK and ERK. Results were compared using one way ANOVA with Tukey post-test. FIG. 4F.
Dabuzalgron protects neonatal rat ventricular myocytes from cell death due to doxorubicin. […] (FIG. 4C).
Female Sprague-Dawley rats were from Charles River. NRVMs were isolated as previously described.7 Briefly, hearts from 1-2 day old rat pups were minced, digested serially in collagenase (Worthington)-containing solution, filtered, then pre-plated to exclude non-myocyotes. NRVMs were then plated on laminin-coated dishes in DMEM with 5% fetal bovine serum (Sigma F2442) for 24 hours. Experiments were carried out after 36-96 hours of serum starvation in the presence of insulin, transferrin, and BrdU. […]
All results are presented as mean±SEM. […] EC50 for ERK activation was calculated using sigmoidal dose-response analysis (Prism).

NC[C@H](O)c1ccc(O)c(O)c1 [norepinephrine]
increase of pERK/ERK ratio: roughly 1.5 fold
